Assay results published in patent publication US11344534B2, “Cholinergic agonism for the treatment of pancreatic cancer” (priority 2017, dated 2022).
Entries after “also recorded” stand apart in the source; their conditions may differ.

What was measured:
[1] = system: Organoid cultures derived from LSL-K-Ras^G12D pancreata not treated by an Adeno-Cre virus; type: cell-based; details: no Adeno-Cre virus (Kras not activated)
PDA patients = experiment: Pilot feasibility study of bethanechol in patients with resectable PDA; type: in vivo, human
Method: Our ongoing pilot feasibility study assesses the impact of 1 week of a fixed dose of bethanechol on pharmacodynamics endpoints in resected pancreatic cancer specimens. […] Subjects receive 100 mg of bethanechol by mouth twice daily for 1 week, discontinuing bethanechol 24 hours prior to scheduled surgery. All subjects will be assessed for toxicity while receiving bethanechol, and for 30 days thereafter. The primary endpoint in the pilot study is a change in cell proliferation (Ki-67 index). […] We will compare gene expression profiles and regulatory networks between treated samples with matched controls in our dataset of >200 PDA, RNAseq analysis will be performed.

Panc02 liver metastases = experiment: Panc02 liver metastatic model (splenic injection, hemi-splenectomy); type: in vivo, mouse
Text: A metastatic mouse model of pancreatic cancer has been developed. The procedure reported by Lei Zheng has been modified and involves resecting half the spleen followed by injection 2×10^6 Panc02 (or other PDAC cell lines) into the spleen (4, 5). (FIG. 3A, B). Mice are then sacrificed 30-60 days later. […] In combination with this metastatic model of pancreatic cancer, a surgical approach to achieve selective cholinergic denervation of the liver has been developed. This involves identifying and isolating the hepatic branch of the vagal nerve, followed by resection of the hepatic branch (FIG. 3E, F).
In additional preliminary studies, the effects of bethanechol on the progression of liver metastases and in survival were examined. […] There were 5-8 mice in each group.
Then, it was examined whether the direct parasympathetic signal influences the metastatic lesions. The liver is a major site of metastatic spread for pancreatic cancer as well as many other solid tumors, and many patients with advanced PDAC eventually die with liver metastases. In order to investigate the role of parasympathetic signaling on the growth of liver metastasis, a well established syngeneic model of metastatic pancreatic cancer (Soares et al. 2014) was utilized. […] Moreover, to confirm that the parasympathetic pathway directly regulated tumor cells at the liver metastatic site, expression of Ki67, CD44 and pEGFR was analyzed.
Liver metastatic model procedure was performed previously described. (Soares K C et al. 2014) Briefly, a left subcostal incision was performed along the line with the left ear and the spleen was exposed through the incision. The spleen was divided into upper and lower spleen by placing two Horizon medium size ligating clips in the center of the spleen. 150 μl of phosphate buffered saline was drawn up into a 27 G×⅝″ syringe and 100 μl of Panc02 (2×10^6) cells was also drawn up into the same syringe and the cells were injected slowly into the exposed lower-hemispleen. Lower hemisplenectomy was performed by ligating pancreas spleen vessel and cutting above.
However, given that many PDAC patients with metastatic disease (Stage IV) eventually die with liver metastases, the effect of parasympathetic signaling on the growth of hepatic lesions was examined utilizing a well-established syngeneic model of metastatic PDAC^32. […] Moreover, to confirm that the parasympathetic pathway directly regulated tumor cells at the liver metastatic site, expression of Ki67 (FIGS. 12H-K), p-EGFR (FIGS. 12L-O) and CD44 (FIGS. 12P-S) were analyzed immunohistochemically. […]

[2] = system: primary human PDA organoids; experiment: Primary human PDA organoids treated with pilocarpine; type: cell-based; details: dose-dependent, 100DM pilocarpine in FIG. 21B
Text: To better understand the effect of growth inhibition by muscarinic agonists in human pancreatic epithelial cells, we generated primary human PDA organoids. Treatment with the broad muscarinic agonist, pilocarpine, reduced the number of viable organoids in a dose-dependent manner (FIGS. 21A-B). Treatment of human pancreatic cancer cells (Panc1) with pilocarpine reduced the size of the CD44+CD24+EpCAM+putative cancer stem cell population in a dose dependent manner (FIG. 21C) and inhibited tumor initiation in NOD/SCID mice (FIG. 21D). To better understand growth inhibition by muscarinic agonists, we analyzed changes in signaling molecules in animal models and PDA cell lines. […] Surprising, a number of signaling molecules were suppressed by both nonspecific and M1R-specific muscarinic agonists, including EGFR, B-RAF, ERK1/2, PI3K, and AKT kinase. These kinases all show reduced phosphorylation by muscarinic agonists, which was abrogated by treatment with muscarinic antagonists. Finally, we analyzed Panc-1 cells following pilocarpine treatment (1 mM, 72 hrs) using RNAseq, and noted that many of the genes suppressed by pilocarpine included EGFR and PI3K^17.

Kras mutant Panc1 cells = experiment: Ca2+ flux in pancreatic cancer cells; type: cell-based, human; details: preliminary studies
murine K8282 cells = experiment: Western blot of EGFR/MAPK and PI3K/AKT signaling, K8282; type: cell-based, mouse
Method: (§1) To analyze EGFR and the MAPK and PI3K-Akt pathway in human and murine pancreatic cancer cell lines, cells were grown in 12-well plate to around ˜70% confluent, changed the 0.5% FBS medium, added the drugs respectively and incubated them for further 72 hrs incubation in a typical CO2 incubator (˜20% O2). After removing the medium, cells were washed twice with PBS, and protein extraction was performed on ice using RIPA buffer with protease inhibitor (Complete) (Roche) cocktail and phosphatase inhibitor (phosSTOP) (Roche). Protein samples were subsequently separated in 10% Bis-Tris Gel NuPAGE® electrophoresis using MES SDS Running Buffer (Invitrogen, CA, USA). After transfer to nitrocellulose, membranes were blocked with 5% BSA, and samples were probed with the following primary antibodies: p-EGFR (Cell Signaling), EGFR (Cell Signaling), p-BRAF (Cell Signaling), BRAF (Cell Signaling), p-ERK1/2 (phosphorylated p44/42 MAPK) (Thr202/Tyr204) (Cell Signaling), ERK1/2 (p44/42 MAPK) (Thr202/Tyr204) (Cell Signaling), p-PI3K (Cell Signaling), PI3K (Cell Signaling), p-Akt (Cell Signaling), Akt (Cell Signaling), and β-actin (Cell Signaling) followed by horseradish peroxidase-coupled secondary antibody. Immunoreactive bands were visualized using 5-bromo-4-chloro-3-indolyl phosphate/nitro blue tetrazolium and bands were quantified with ImageJ.
(§2) To analyze EGFR, MAPK and PI3K-AKT pathways in human and murine pancreatic cancer cell lines, cells were grown in 12-well culture plates to ˜70% confluency. The medium was then changed to 0.5% FBS medium, the respective drugs were added, and they were incubated for an additional 72 hours in a CO2 incubator (˜5% CO2). After removing the medium, cells were washed twice with PBS, and protein extraction was performed on ice using RIPA buffer with protease inhibitor (Complete, Roche) cocktail and a phosphatase inhibitor (phosSTOP, Roche). Protein samples were subsequently separated by 10% Bis-Tris Gel NuPAGE® electrophoresis using MES SDS Running Buffer (Invitrogen, CA, USA). After transfer to nitrocellulose, membranes were blocked with 5% BSA, and samples were probed with the following primary antibodies: p-EGFR (Cell Signaling), EGFR (Cell Signaling), p-BRAF (Cell Signaling), BRAF (Cell Signaling), p-ERK1/2 (phosphorylated p44/42 MAPK) (Thr202/Tyr204) (Cell Signaling), ERK1/2 (p44/42 MAPK) (Thr202/Tyr204) (Cell Signaling), p-PI3K (Cell Signaling), PI3K (Cell Signaling), p-AKT (Cell Signaling), AKT (Cell Signaling), and β-actin (Cell Signaling) followed by horseradish peroxidase-coupled secondary antibody. Immunoreactive bands were visualized using 5-bromo-4-chloro-3-indolyl phosphate/nitro blue tetrazolium and bands were quantified with ImageJ.

Panc1 cells = experiment: Soft agar assay, human cells; type: cell-based; details: human cancer cells (Panc1)
human Panc1 cells = experiment: Western blot of EGFR/MAPK and PI3K/AKT signaling, Panc1; type: cell-based
Method: as §1, §2

[3] = Panc02 liver metastatic model, at necropsy
[4] = Panc02 liver metastatic model, bethanechol vs untreated control

Row | Compound | sphere forming capacity / growth of WT spheres [1] | plasma TNFα levels (PDA patients; PDA patients, bethanechol 100 mg twice daily for 1 week, preliminary pilot data) | Ki-67, CD44, pERK and p-EGFR (IHC staining of PDA tissue) (PDA patients; bethanechol-treated patients compared to untreated patients) | other cytokine levels such as ICAM-1 and MIF (PDA patients; plasma of a study patient, pre- vs post-treatment, cytokine antibody array) | (maximum) tumor volume (Panc02 liver metastases; [3]) | number of tumors (Panc02 liver metastases; [3]) | survival (Panc02 liver metastases; Panc02 liver metastatic model, bethanechol in drinking water, controls 29 days) [days] | survival (in words) (Panc02 liver metastases; [4]) | tumor growth (Panc02 liver metastases; [4]) | immunohistochemical markers: Ki67, C44, F4/80, nerves (peripherin or neurofilament), phospho-EGFR and phosphor-PI3K (Panc02 liver metastases; after bethanechol treatment) | expression of Ki67, p-EGFR and CD44 in liver metastases (Panc02 liver metastases; bethanechol group vs untreated control) | reduction in Ki-67 staining of Panc02 liver mets (Panc02 liver metastases; mice, bethanechol treatment) [%] | number of viable organoids [2] | Ca2+ flux (Kras mutant Panc1 cells) | phosphorylation of EGFR, BRAF, ERK1/2, PI3K and AKT kinases (western blot) (murine K8282 cells; 72 hours) | ratios of p-EGFR/EGFR, p-BRAF/BRAF, p-ERK/ERK, p-PI3K/PI3K and p-AKT/AKT (densitometry) (murine K8282 cells; single agent alone) | colonies / sphere formation in soft agar (Panc1 cells) | phosphorylation of EGFR, BRAF, ERK1/2, PI3K and AKT kinases (western blot) (human Panc1 cells; 72 hours) | ratios of p-EGFR/EGFR, p-BRAF/BRAF, p-ERK/ERK, p-PI3K/PI3K and p-AKT/AKT (densitometry) (human Panc1 cells; single agent alone)
1 | CC(C[N+](C)(C)C)OC(N)=O (centres unmarked) [bethanechol, 2-[(aminocarbonyl)oxy]-N,N,N-trimethyl-1-propanaminium] | increased | trend towards lower | might lead to a decrease | possible reductions | inhibited | inhibited | 41 | significantly longer; also recorded: extend; also recorded: significantly prolonged | inhibited; also recorded: suppressed | decreased | significantly decreased; also recorded: suppression | 50 |  |  |  |  |  |  | 
2 | CC[C@@H]1C(=O)OC[C@@H]1Cc1cncn1C [pilocarpine, (3S,4R)-3-ethyl-4-[(3-methylimidazol-4-yl)methyl]oxolan-2-one] | stimulates |  |  |  |  |  |  |  |  |  |  |  | reduced | unable to stimulate | significantly less phosphorylated | significantly decreased | significantly fewer | significantly less phosphorylated | significantly decreased
